# Laboratory results reported in patent US20230212170A1, “INHIBITORS OF KRAS G12C PROTEIN AND USES THEREOF” (SHANGHAI ANTENGENE CORPORATION LIMITED, priority 2020, published 2023).
# Target: KRAS G12C (Homo sapiens, UniProt P01116, G12C)
# Experiment: KRAS G12C nucleotide exchange assay (SOS1-mediated, mant-GDP fluorescence)
# Assay type: biochemical
# Design: KRas(1-169) G12C protein
# Conditions: 15 min pre-incubation
# Procedure: Assay 1: KRAS G12C Nucleotide Exchange Assay
# 1×Loading buffer: 20 mM HEPES, pH 7.5, 50 mM NaCl, 0.5 mM MgCl2, 1 mM DTT, 5 mM EDTA
# 1×Equilibration buffer: 20 mM HEPES, pH 7.5, 150 mM NaCl, 1 mM MgCl2, 1 mM DTT
# 1×Assay buffer: 20 mM HEPES, pH 7.5, 150 mM NaCl, 1 mM MgCl2, 0.01% Tween-20, 1 mM DTT
# 2. Load Mant GDP to KRAS G12C:
# a. A mixed solution of 100 µL mant GDP and KRAS G12C was prepared with 1×loading buffer: 60 um KRAS G12C, 600 um […], incubated at room temperature for 60 minutes, and the reaction was carried out in dark conditions.
# b. Add 1 uL 1 m MgCl2 (final concentration 10 mm) to stop the reaction, mix the solution upside down in the centrifuge tube, centrifugate for 3-5 seconds, and incubate at room temperature for 30 minutes.
# c. At the same time of incubation for 30 minutes, balance nap-5 column with 10 ml ix equipment buffer until no liquid drops.
# d. Drop the mixed solution of 100 uL mant GDP and KRAS G12C into the center of nap-5 column. After the sample completely enters nap-5 column, add 400 µL 1× equipment buffer until no liquid drops.
# e. Add 500 ul 1× equipment buffer for elution and collect eluant.
# f. Determination of KRAS G12C mant GDP with Bradford protein quantitative Kit.
# 3. Nucleotide Exchange Experiment:
# a. Transfer 50 NL DMSO/compound to 384 well plate with echo550.
# b. 10 uL enzyme mix was added into 384 pore plate and incubated with DMSO/compound for 15 min.
# c. Initial reaction with 10 µL Sos1/GTP mix.
# d. Immediately after reaction, read ex360/em440 fluorescence value in kinetic mode with Nivo.
# a. Use Graphpad software to process data and draw pictures.
# b. K value is obtained in Graphpad software by fitting One phase experimental deck model.
# c. Z′=1-3*(SdKmax+SdKmin)/(AveKmax−AveKmin)
# d. In % is calculated by the following formula:
# Inh%=(Kmax−Ksample)/(Kmax−Kmin)*100
# Chain of KRAS G12C (P01116 1-169 isoform P01116-2 G12C): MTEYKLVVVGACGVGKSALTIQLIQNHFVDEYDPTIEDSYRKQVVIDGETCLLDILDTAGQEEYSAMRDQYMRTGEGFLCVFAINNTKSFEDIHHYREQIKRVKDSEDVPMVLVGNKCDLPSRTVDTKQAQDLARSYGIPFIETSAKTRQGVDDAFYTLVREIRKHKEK
row,Compound,IC50
1,"C=CC(=O)N1C[C@H](C)N(c2nc(OC[C@@H]3CCCN3C)nc3c(=O)n(-c4cccc5cccc(Cl)c45)c(C)nc23)C[C@@H]1C [Compound 8, 8-((2S,5S)-4-acryloyl-2,5-dimethylpiperazin-1-yl)-3-(8-chloronaphthalen-1-yl)-2-methyl-6-(((S)-1-methylpyrrolidin-2-yl)methoxy)pyrimido[5,4-d]pyrimidin-4(3H)-one]",60.7 µM
2,"C=CC(=O)N1CCN(c2nc(OC[C@@H]3CCCN3C)nc3c(=O)n(-c4cccc5cccc(C)c45)c(C)nc23)CC1 [Compound 6, (S)-8-(4-acryloylpiperazin-1-yl)-2-methyl-3-(8-methylnaphthalen-1-yl)-6-((1-methylpyrrolidin-2-yl)methoxy)pyrimido[5,4-d]pyrimidin-4(3H)-one]",1.78 µM
3,"C=CC(=O)N1CCN(c2nc(OC[C@@H]3CCCN3C)nc3c(=O)n(-c4cccc5ncccc45)c(C)nc23)C[C@@H]1CC#N [Compound 15, 2-((S)-1-acryloyl-4-(6-methyl-2-(((S)-1-methylpyrrolidin-2-yl)methoxy)-8-oxo-7-(quinolin-5-yl)-7,8-dihydropyrimido[5,4-d]pyrimidin-4-yl)piperazin-2-yl)acetonitrile]",2.93 µM
4,"C=CC(=O)N1CCN(c2nc(OC[C@@H]3CCCN3C)nc3c(=O)n(-c4cccc5ccccc45)cnc23)CC1 [Compound 5, (S)-8-(4-acryloylpiperazin-1-yl)-6-((1-methylpyrrolidin-2-yl)methoxy)-3-(naphthalen-1-yl)pyrimido[5,4-d]pyrimidin-4(3H)-one]",52.3 µM
5,"C=CC(=O)N1CCN(c2nc(OC[C@@H]3CCCN3C)nc3c(=O)n(-c4cccc5cccc(C(=C)C)c45)c(C)nc23)C[C@@H]1CC#N [Compound 11, 2-((S)-1-acryloyl-4-(6-methyl-2-(((S)-1-methylpyrrolidin-2-yl)methoxy)-8-oxo-7-(8-(prop-1-en-2-yl)naphthalen-1-yl)-7,8-dihydropyrimido[5,4-d]pyrimidin-4-yl)piperazin-2-yl)acetonitrile]",2.94 µM
6,"C=CC(=O)N1CCN(c2nc(OC[C@@H]3CCCN3C)nc3c(=O)n(-c4cccc5ccccc45)c(-c4ccccc4)nc23)CC1 [Compound 18, (S)-8-(4-acryloylpiperazin-1-yl)-6-((1-methylpyrrolidin-2-yl)methoxy)-3-(naphthalen-1-yl)-2-phenylpyrimido[5,4-d]pyrimidin-4(3H)-one]",9.97 µM
7,"C=CC(=O)N1CCN(c2nc(OC[C@@H]3CCCN3C)nc3c(=O)n(-c4c(C)ccc5[nH]ncc45)c(C)nc23)CC1 [Compound 22, (S)-8-(4-acryloylpiperazin-1-yl)-2-methyl-3-(5-methyl-1H-indazol-4-yl)-6-((1-methylpyrrolidin-2-yl)methoxy)pyrimido[5,4-d]pyrimidin-4(3H)-one]",22.9 µM
8,"C=CC(=O)N1CCN(c2nc(OC[C@@H]3CCCN3C)nc3c(=O)n(-c4cccc5ccccc45)c(C)nc23)CC1 [Example 1, (S)-8-(4-acryloylpiperazin-1-yl)-2-methyl-6-((1-methylpyrrolidin-2-yl)methoxy)-3-(naphthalen-1-yl)pyrimido[5,4-d]pyrimidin-4(3H)-one]",35.4 µM
9,"C=CC(=O)N1CCN(c2nc(OC[C@@H]3CCCN3C)nc3c2CCCC(c2c(C)ccc4[nH]ncc24)C3)CC1 (stereo partly drawn) [Compound 20, 1-(4-(8-(5-methyl-1H-indazol-4-yl)-2-(((S)-1-methylpyrrolidin-2-yl)methoxy)-6,7,8,9-tetrahydro-5H-cyclohepta[d]pyrimidin-4-yl)piperazin-1-yl)prop-2-en-1-one]",2.88 µM
10,"C=CC(=O)N1CCN(c2nc(OC[C@@H]3CCCN3C)nc3c(=O)n(-c4cccc5cccc(CC)c45)c(C)nc23)C[C@@H]1CC#N [Compound 9, 2-((S)-1-acryloyl-4-(7-(8-ethylnaphthalen-1-yl)-6-methyl-2-(((S)-1-methylpyrrolidin-2-yl)methoxy)-8-oxo-7,8-dihydropyrimido[5,4-d]pyrimidin-4-yl)piperazin-2-yl)acetonitrile]",1.07 µM
11,"C=CC(=O)N1CCN(c2nc(OC[C@@H]3CCCN3C)nc3c(=O)n(-c4cc(OC)cc5ccccc45)c(C)nc23)C[C@@H]1CC#N [Compound 12, 2-((S)-1-acryloyl-4-(7-(3-methoxynaphthalen-1-yl)-6-methyl-2-(((S)-1-methylpyrrolidin-2-yl)methoxy)-8-oxo-7,8-dihydropyrimido[5,4-d]pyrimidin-4-yl)piperazin-2-yl)acetonitrile]",0.9 µM
12,"C=CC(=O)N(C)C1CCN(c2nc(OC[C@@H]3CCCN3C)nc3c2CCN(c2cccc4cccc(Cl)c24)C3)C1 (stereo partly drawn) [Compound 21, N-(1-(7-(8-chloronaphthalen-1-yl)-2-(((S)-1-methylpyrrolidin-2-yl)methoxy)-5,6,7,8-tetrahydropyrido[3,4-d]pyrimidin-4-yl)pyrrolidin-3-yl)-N-methylacrylamide]",19 µM
13,"C=CC(=O)N1CCN(c2nc(OC[C@@H]3CCCN3C)nc3c(=O)n(-c4cccc5cccc(Cl)c45)c(C)nc23)CC1 [Compound 3, (S)-8-(4-acryloylpiperazin-1-yl)-3-(8-chloronaphthalen-1-yl)-2-methyl-6-((1-methylpyrrolidin-2-yl)methoxy)pyrimido[5,4-d]pyrimidin-4(3H)-one]",8.24 µM

# These reach a lower IC50. Values come first.
row,IC50,Compound
1,0.82 µM,"C=CC(=O)N1CCN(c2nc(OC[C@@H]3CCCN3C)nc3c(=O)n(-c4c(C)c(C)cc5[nH]ncc45)c(C)nc23)C[C@@H]1CC#N [Compound 16, 2-((S)-1-acryloyl-4-(7-(5,6-dimethyl-1H-indazol-4-yl)-6-methyl-2-(((S)-1-methylpyrrolidin-2-yl)methoxy)-8-oxo-7,8-dihydropyrimido[5,4-d]pyrimidin-4-yl)piperazin-2-yl)acetonitrile]"
2,0.84 µM,"C=CC(=O)N1CCN(c2nc(OC[C@@H]3CCCN3C)nc3c(=O)n(-c4cccc5cccc(C6CC6)c45)c(C)nc23)C[C@@H]1CC#N [Compound 10, 2-((S)-1-acryloyl-4-(7-(8-cyclopropylnaphthalen-1-yl)-6-methyl-2-(((S)-1-methylpyrrolidin-2-yl)methoxy)-8-oxo-7,8-dihydropyrimido [5,4-d]pyrimidin-4-yl)piperazin-2-yl)acetonitrile]"
3,0.86 µM,"C=CC(=O)N1CCN(c2nc(OC[C@@H]3CCCN3C)nc3c(=O)n(-c4cccc5ccccc45)c(CC)nc23)C[C@@H]1CC#N [Compound 14, 2-((S)-1-acryloyl-4-(6-ethyl-2-(((S)-1-methylpyrrolidin-2-yl)methoxy)-7-(naphthalen-1-yl)-8-oxo-7,8-dihydropyrimido[5,4-d]pyrimidin-4-yl)piperazin-2-yl)acetonitrile]"
4,0.39 µM,"C=CC(=O)N1CCN(c2nc(OC[C@@H]3CCCN3C)nc3c(=O)n(-c4cccc5cccc(Cl)c45)c(CC)nc23)C[C@@H]1CC#N [Compound 13, 2-((S)-1-acryloyl-4-(7-(8-chloronaphthalen-1-yl)-6-ethyl-2-(((S)-1-methylpyrrolidin-2-yl)methoxy)-8-oxo-7,8-dihydropyrimido[5,4-d]pyrimidin-4-yl)piperazin-2-yl)acetonitrile]"
5,0.39 µM,"C=CC(=O)N1CCN(c2nc(OC[C@@H]3CCCN3C)nc3c(=O)n(-c4cccc5cccc(C)c45)c(C)nc23)C[C@@H]1CC#N [Compound 7, 2-((S)-1-acryloyl-4-(6-methyl-7-(8-methylnaphthalen-1-yl)-2-(((S)-1-methylpyrrolidin-2-yl)methoxy)-8-oxo-7,8-dihydropyrimido[5,4-d]pyrimidin-4-yl)piperazin-2-yl)acetonitrile]"
6,0.48 µM,"C=CC(=O)N1CCN(c2nc(OC[C@@H]3CCCN3C)nc3c(=O)n(-c4cccc5ccccc45)c(-c4ccccc4)nc23)C[C@@H]1CC#N [Compound 17, 2-((S)-1-acryloyl-4-(2-(((S)-1-methylpyrrolidin-2-yl)methoxy)-7-(naphthalen-1-yl)-8-oxo-6-phenyl-7,8-dihydropyrimido[5,4-d]pyrimidin-4-yl)piperazin-2-yl)acetonitrile]"
7,0.71 µM,"C=CC(=O)N1CCN(c2nc(OC[C@@H]3CCCN3C)nc3c(=O)n(-c4c(C)ccc5[nH]ncc45)c(C)nc23)C[C@@H]1CC#N [Compound 23, 2-((S)-1-acryloyl-4-(6-methyl-7-(5-methyl-1H-indazol-4-yl)-2-(((S)-1-methylpyrrolidin-2-yl)methoxy)-8-oxo-7,8-dihydropyrimido[5,4-d]pyrimidin-4-yl)piperazin-2-yl)acetonitrile]"
